Columns and labels:
[1] = xn = mol fraction of the nth substance listed; settings: Liquid, Vibrating tube method, x2 = 0
[2] = Liquid, Vibrating tube method

CCO [ethanol] + COC(=O)OC
mass density [kg/m3], [1]
Settings	100 kPa	5000 kPa	10000 kPa	15000 kPa	20000 kPa	25000 kPa	30000 kPa	35000 kPa	40000 kPa
288.15 K	794.39	798.18	802.2	806.02	809.69	812.95	816.23	819.12	822.29
293.15 K	789.87	793.83	797.88	801.84	805.45	809.12	812.52	815.8	818.81
298.15 K	785.59	789.72	793.76	797.75	801.4	805.07	808.47	811.58	815.03
303.15 K	781.19	785.47	789.66	793.71	797.54	801.26	804.81	808.29	811.43
308.15 K	776.6	780.98	785.42	789.62	793.63	797.42	801.06	804.6	808.06

CCCO [propan-1-ol]
mass density [kg/m3], [2]
Settings	100 kPa	5000 kPa	10000 kPa	15000 kPa	20000 kPa	25000 kPa	30000 kPa	35000 kPa	40000 kPa
288.15 K	807.62	811.32	814.7	817.95	821.27	824.24	827.24	830.04	832.73
293.15 K	803.57	807.24	810.8	814.22	817.46	820.74	823.7	826.5	829.09
298.15 K	799.61	803.49	807.15	810.5	813.78	816.92	820.04	822.87	825.81
303.15 K	795.62	799.57	803.13	806.69	810.14	813.48	816.64	819.75	822.6
308.15 K	791.31	795.4	799.21	802.79	806.37	809.72	813.03	816.12	819.06

CCCO [propan-1-ol] + COC(=O)OC
mass density [kg/m3], [1]
Settings	100 kPa	5000 kPa	10000 kPa	15000 kPa	20000 kPa	25000 kPa	30000 kPa	35000 kPa	40000 kPa
288.15 K	807.62	811.32	814.7	817.95	821.27	824.24	827.24	830.04	832.73
293.15 K	803.57	807.24	810.8	814.22	817.46	820.74	823.7	826.5	829.09
298.15 K	799.61	803.49	807.15	810.5	813.78	816.92	820.04	822.87	825.81
303.15 K	795.62	799.57	803.13	806.69	810.14	813.48	816.64	819.75	822.6
308.15 K	791.31	795.4	799.21	802.79	806.37	809.72	813.03	816.12	819.06

COC(=O)OC [dimethyl carbonate]
mass density [kg/m3], [2]
Settings	100 kPa	5000 kPa	10000 kPa	15000 kPa	20000 kPa	25000 kPa	30000 kPa	35000 kPa	40000 kPa
288.15 K	1076.83	1081.15	1085.32	1089.52	1093.35	1096.99	1100.63	1104.08	1107.4
293.15 K	1070.06	1074.62	1078.93	1083.01	1087.08	1091.03	1094.75	1098.34	1101.84
298.15 K	1063.45	1068	1072.51	1076.72	1080.9	1084.89	1088.82	1092.44	1096.04
303.15 K	1056.61	1061.47	1066.02	1070.49	1074.79	1078.99	1082.9	1086.6	1090.4
308.15 K	1049.91	1054.84	1059.69	1064.3	1068.73	1073	1077.1	1080.78	1084.38

CO [methanol] + COC(=O)OC
mass density [kg/m3], [1]
Settings	100 kPa	5000 kPa	10000 kPa	15000 kPa	20000 kPa	25000 kPa	30000 kPa	35000 kPa	40000 kPa
288.15 K	796.19	800.57	804.93	808.85	812.92	816.56	820.09	823.62	827.04
293.15 K	791.18	795.97	800.47	804.52	808.43	812.34	815.93	819.32	822.48
298.15 K	786.76	791.52	795.8	800.13	804.18	808.04	811.69	815.2	818.33
303.15 K	782.07	786.79	791.31	795.85	800.16	804.08	807.78	811.31	814.7
308.15 K	777.09	781.85	786.63	791.23	795.58	799.85	803.73	807.42	811.08

CO [methanol]
mass density [kg/m3], [2]
Settings	100 kPa	5000 kPa	10000 kPa	15000 kPa	20000 kPa	25000 kPa	30000 kPa	35000 kPa	40000 kPa
288.15 K	796.19	800.57	804.93	808.85	812.92	816.56	820.09	823.62	827.04
293.15 K	791.18	795.97	800.47	804.52	808.43	812.34	815.93	819.32	822.48
298.15 K	786.76	791.52	795.8	800.13	804.18	808.04	811.69	815.2	818.33
303.15 K	782.07	786.79	791.31	795.85	800.16	804.08	807.78	811.31	814.7
308.15 K	777.09	781.85	786.63	791.23	795.58	799.85	803.73	807.42	811.08

CCO [ethanol]
mass density [kg/m3], [2]
Settings	100 kPa	5000 kPa	10000 kPa	15000 kPa	20000 kPa	25000 kPa	30000 kPa	35000 kPa	40000 kPa
288.15 K	794.39	798.18	802.2	806.02	809.69	812.95	816.23	819.12	822.29
293.15 K	789.87	793.83	797.88	801.84	805.45	809.12	812.52	815.8	818.81
298.15 K	785.59	789.72	793.76	797.75	801.4	805.07	808.47	811.58	815.03
303.15 K	781.19	785.47	789.66	793.71	797.54	801.26	804.81	808.29	811.43
308.15 K	776.6	780.98	785.42	789.62	793.63	797.42	801.06	804.6	808.06
